Laboratory results from US20120258980A1, “Antibacterial Agent for Drug-Resistant Bacteria, Method for Screening for Same, and Use of Same” (priority 2009, published 2012).
≈ marks a conversion by molar mass, not a printed value.

Test system: VISA clinical isolates of MRSA (VI-MRSA) and of MSSA (VI-MSSA)
Assay: microbe, parasite or virus in culture
Type: cell-based, Staphylococcus aureus
Procedure: Each of the bacterial strains listed in Table 1-1 was shake-cultured at 37° C. overnight in 4 mL of a medium (Tryptical Soy Broth: TSB, product of Becton Dickinson and Company). FDA209P was used as a control.
After completion of culturing, the resultant culture was suspended in a cation-adjusted Mueller Hinton Broth (CAMHB, product of Becton Dickinson and Company). Then, the obtained bacterial culture was adjusted in absorbance with the CAMHB so that the absorbance at 578 nm of the bacterial culture was adjusted to 0.3 measured by an absorption spectrometer. In addition, the resultant bacterial culture was 500-fold diluted with the CAMHB.
Each of the 500-fold diluted, pre-cultured bacterial cultures was added at 50 μL/well to the CAMHB containing the quinolones and the nybomycins at various concentrations (50 μL/well), followed by statically culturing at 37° C. overnight.
After completion of culturing, the growth of the bacteria was visually determined based on turbidity to measure MIC in each bacterial strain.
Here, the glycopeptides used were VCM and TEIC. The β-lactam used was OXA.

[1] = Staphylococcus aureus, 99/3700-W, VI-MRSA, The United Kingdom
[2] = Staphylococcus aureus, 99/3759-V, VI-MRSA, The United Kingdom
[3] = Staphylococcus aureus, 28160, VI-MRSA, South African Republic
[4] = Staphylococcus aureus, 98141, VI-MRSA, France
[5] = Staphylococcus aureus, A7 (JCSC4842), VI-MRSA, Taiwan
[6] = Staphylococcus aureus, AMC11094, VI-MRSA, Korea
[7] = Staphylococcus aureus, B7 (JCSC4852), VI-MRSA, Taiwan
[8] = Staphylococcus aureus, BR1, VI-MRSA, Brazil
[9] = Staphylococcus aureus, BR2, VI-MRSA, Brazil
[10] = Staphylococcus aureus, BR3, VI-MRSA, Brazil
[11] = Staphylococcus aureus, BR4, VI-MRSA, Brazil
[12] = Staphylococcus aureus, BR5, VI-MRSA, Brazil
[13] = Staphylococcus aureus, HIP06297, VI-MRSA, America
[14] = Staphylococcus aureus, HIP06854, VI-MRSA, America
[15] = Staphylococcus aureus, HIP07920, VI-MRSA, America
[16] = Staphylococcus aureus, HIP07930, VI-MRSA, America
[17] = Staphylococcus aureus, HIP08926, VI-MRSA, America
[18] = Staphylococcus aureus, HIP09143, VI-MRSA, America
[19] = Staphylococcus aureus, HIP09313, VI-MRSA, America
[20] = Staphylococcus aureus, HIP09433, VI-MRSA, America
[21] = Staphylococcus aureus, HIP09662, VI-MRSA, America
[22] = Staphylococcus aureus, HIP09735, VI-MRSA, America
[23] = Staphylococcus aureus, HIP09737, VI-MSSA, America
[24] = Staphylococcus aureus, HIP09740, VI-MRSA, America
[25] = Staphylococcus aureus, HIP10267, VI-MRSA, America
[26] = Staphylococcus aureus, HIP10540, VI-MRSA, America
[27] = Staphylococcus aureus, HIP12864, VI-MRSA, America
[28] = Staphylococcus aureus, HIP13036, VI-MRSA, America
[29] = Staphylococcus aureus, HIP13057, VI-MRSA, America
[30] = Staphylococcus aureus, IL (HIP7737), VI-MRSA, America
[31] = Staphylococcus aureus, JCSC7193, VI-MRSA, Thailand
[32] = Staphylococcus aureus, JCSC7195, VI-MRSA, Thailand
[33] = Staphylococcus aureus, JCSC7203, VI-MRSA, Thailand
[34] = Staphylococcus aureus, LIM2, VI-MRSA, France
[35] = Staphylococcus aureus, LY-1999-01, VI-MSSA, Oman
[36] = Staphylococcus aureus, LY-1999-03, VI-MRSA, Oman
[37] = Staphylococcus aureus, MI (HIP5827), VI-MRSA, America
[38] = Staphylococcus aureus, MRSA / MSSA / NRS 76 / VISA, NRS76, VI-MSSA, America
[39] = Staphylococcus aureus, MRSA / MSSA / NRS 79 / VISA, NRS79, VI-MRSA, America
[40] = Staphylococcus aureus, MRSA / MSSA / NRS 118 / VISA, NRS118, VI-MRSA, America
[41] = Staphylococcus aureus, MRSA / MSSA / NRS 126 / VISA, NRS126, VI-MRSA, America
[42] = Staphylococcus aureus, Mu3, VI-MRSA, Japan
[43] = Staphylococcus aureus, Mu50, VI-MRSA, Japan
[44] = Staphylococcus aureus, NJ (HIP5836), VI-MRSA, America
[45] = Staphylococcus aureus, P1V44, VI-MSSA, Belgium
[46] = Staphylococcus aureus, PC, VI-MRSA, America
[47] = Staphylococcus aureus, SA MER-S6, VI-MSSA, France
[48] = Staphylococcus aureus, SA MER-S12, VI-MSSA, France
[49] = Staphylococcus aureus, SA MER-S20, VI-MSSA, France

Cc1cc(=O)n2c3c(c4c(cc13)c(CO)cc(=O)n4C)OC2 [NM, nybomycin]
MIC [1]: 0.25 µg/mL (≈ 0.838 µM) | MIC [2]: 0.5 µg/mL (≈ 1.68 µM) | MIC [3]: 0.5 µg/mL (≈ 1.68 µM) | MIC [4]: 0.5 µg/mL (≈ 1.68 µM) | MIC [5]: 0.125 µg/mL (≈ 0.419 µM) | MIC [6]: 1 µg/mL (≈ 3.35 µM) | MIC [7]: ≤ 0.063 µg/mL | MIC [8]: 0.5 µg/mL (≈ 1.68 µM) | MIC [9]: 0.25 µg/mL (≈ 0.838 µM) | MIC [10]: 0.25 µg/mL (≈ 0.838 µM) | MIC [11]: 0.25 µg/mL (≈ 0.838 µM) | MIC [12]: 0.25 µg/mL (≈ 0.838 µM) | MIC [13]: 0.5 µg/mL (≈ 1.68 µM) | MIC [14]: 1 µg/mL (≈ 3.35 µM) | MIC [15]: 0.25 µg/mL (≈ 0.838 µM) | MIC [16]: 1 µg/mL (≈ 3.35 µM) | MIC [17]: 0.25 µg/mL (≈ 0.838 µM) | MIC [18]: 0.25 µg/mL (≈ 0.838 µM) | MIC [19]: 0.5 µg/mL (≈ 1.68 µM) | MIC [20]: 1 µg/mL (≈ 3.35 µM) | MIC [21]: 1 µg/mL (≈ 3.35 µM) | MIC [22]: 0.25 µg/mL (≈ 0.838 µM) | MIC [23]: 1 µg/mL (≈ 3.35 µM) | MIC [24]: 0.25 µg/mL (≈ 0.838 µM) | MIC [25]: 2 µg/mL (≈ 6.7 µM) | MIC [26]: 0.25 µg/mL (≈ 0.838 µM) | MIC [27]: 0.5 µg/mL (≈ 1.68 µM) | MIC [28]: 0.5 µg/mL (≈ 1.68 µM) | MIC [29]: 0.25 µg/mL (≈ 0.838 µM) | MIC [30]: 1 µg/mL (≈ 3.35 µM) | MIC [31]: 0.33 µg/mL (≈ 1.11 µM) | MIC [32]: 0.33 µg/mL (≈ 1.11 µM) | MIC [33]: 0.16 µg/mL (≈ 0.536 µM) | MIC [34]: 0.5 µg/mL (≈ 1.68 µM) | MIC [35]: 0.125 µg/mL (≈ 0.419 µM) | MIC [36]: ≤ 0.063 µg/mL | MIC [37]: 0.5 µg/mL (≈ 1.68 µM) | MIC [38]: 0.25 µg/mL (≈ 0.838 µM) | MIC [39]: 1 µg/mL (≈ 3.35 µM) | MIC [40]: 0.25 µg/mL (≈ 0.838 µM) | MIC [41]: 0.5 µg/mL (≈ 1.68 µM) | MIC [42]: 0.5 µg/mL (≈ 1.68 µM) | MIC [43]: 0.25 µg/mL (≈ 0.838 µM) | MIC [44]: 0.5 µg/mL (≈ 1.68 µM) | MIC [45]: 1 µg/mL (≈ 3.35 µM) | MIC [46]: 1 µg/mL (≈ 3.35 µM) | MIC [47]: 64 µg/mL (≈ 215 µM) | MIC [48]: 64 µg/mL (≈ 215 µM) | MIC [49]: > 64 µg/mL

CC1COc2c(N3CCN(C)CC3)c(F)cc3c(=O)c(C(=O)O)cn1c23 (centres unmarked) [OFLX, ofloxacin]
MIC [1]: 16 µg/mL (≈ 44.3 µM) | MIC [2]: 32 µg/mL (≈ 88.6 µM) | MIC [3]: 64 µg/mL (≈ 177 µM) | MIC [4]: 16 µg/mL (≈ 44.3 µM) | MIC [5]: 16 µg/mL (≈ 44.3 µM) | MIC [6]: 128 µg/mL (≈ 354 µM) | MIC [7]: 16 µg/mL (≈ 44.3 µM) | MIC [8]: 64 µg/mL (≈ 177 µM) | MIC [9]: 64 µg/mL (≈ 177 µM) | MIC [10]: 64 µg/mL (≈ 177 µM) | MIC [11]: 64 µg/mL (≈ 177 µM) | MIC [12]: 64 µg/mL (≈ 177 µM) | MIC [13]: 16 µg/mL (≈ 44.3 µM) | MIC [14]: 16 µg/mL (≈ 44.3 µM) | MIC [15]: 16 µg/mL (≈ 44.3 µM) | MIC [16]: 32 µg/mL (≈ 88.6 µM) | MIC [17]: 16 µg/mL (≈ 44.3 µM) | MIC [18]: 64 µg/mL (≈ 177 µM) | MIC [19]: 16 µg/mL (≈ 44.3 µM) | MIC [20]: 64 µg/mL (≈ 177 µM) | MIC [21]: 32 µg/mL (≈ 88.6 µM) | MIC [22]: 32 µg/mL (≈ 88.6 µM) | MIC [23]: 64 µg/mL (≈ 177 µM) | MIC [24]: 64 µg/mL (≈ 177 µM) | MIC [25]: 64 µg/mL (≈ 177 µM) | MIC [26]: 32 µg/mL (≈ 88.6 µM) | MIC [27]: 64 µg/mL (≈ 177 µM) | MIC [28]: 8 µg/mL (≈ 22.1 µM) | MIC [29]: 32 µg/mL (≈ 88.6 µM) | MIC [30]: 128 µg/mL (≈ 354 µM) | MIC [31]: 16 µg/mL (≈ 44.3 µM) | MIC [32]: 64 µg/mL (≈ 177 µM) | MIC [33]: 16 µg/mL (≈ 44.3 µM) | MIC [34]: 64 µg/mL (≈ 177 µM) | MIC [35]: 8 µg/mL (≈ 22.1 µM) | MIC [36]: 8 µg/mL (≈ 22.1 µM) | MIC [37]: 128 µg/mL (≈ 354 µM) | MIC [38]: 64 µg/mL (≈ 177 µM) | MIC [39]: 128 µg/mL (≈ 354 µM) | MIC [40]: 64 µg/mL (≈ 177 µM) | MIC [41]: 16 µg/mL (≈ 44.3 µM) | MIC [42]: 16 µg/mL (≈ 44.3 µM) | MIC [43]: 16 µg/mL (≈ 44.3 µM) | MIC [44]: 64 µg/mL (≈ 177 µM) | MIC [45]: 4 µg/mL (≈ 11.1 µM) | MIC [46]: 16 µg/mL (≈ 44.3 µM) | MIC [47]: 1 µg/mL (≈ 2.77 µM) | MIC [48]: 0.5 µg/mL (≈ 1.38 µM) | MIC [49]: 0.25 µg/mL (≈ 0.692 µM)
